The text below walks through data of patent publication US20220339135A1, “COMPOSITIONS AND METHODS FOR MODULATING AN INFLAMMATORY RESPONSE” (Enzychem Lifesciences Corporation, priority 2019, published 2022).

Data set [1] in a line: Micelle particle size by DLS and TEM. It is filed as physicochemical. The following applies: micelles. As for the experimental part:
The formation of micelles composed of PLAG or POPC was prepared in RPMI1640 medium by vigorous stirring at a final concentration of 10 mg/ml. The particle size of PLAG and POPC micelles was measured by dynamic light scattering (Zetasizer 3000HS, Malvern Instruments Ltd., UK). The morphological examination of the micelles was performed by transmission electron microscopy (TEM) by dropping the samples into the carbon films on the copper grid for viewing with 2% (weight per volume) phosphotungstic acid staining.

The subject of data set [2] is STZ-induced hepatic steatosis. The data set can be described thus: STZ-induced mice model (lipid uptake, hepatic steatosis). It is filed as in vivo. As to conditions: for body weight versus STZ treated mice / hepatic steatosis / liver damage (histology): co-treated 3 days. An excerpt:
Eight-week-old Balb/c male mice were purchased from Koatech Co. (Pyeongtaek, Republic of Korea) and maintained in for 7 days in order to adapt to the environment. The experimental protocol was approved by the Animal Care and Use Committee of Korea Research Institute of Bioscience and Biotechnology Institution (KRIBB-AEC-17146) and performed in accordance with the National Institutes of Health Guidelines for the care and use of laboratory animals and with the Korean national laws for animal welfare. The mice were randomized initially into two experimental groups as follows: Non-treated group as a control; STZ treated group. STZ treated groups received an intraperitoneal injection of 200 mg/kg BW STZ, which was dissolved in citrate buffer (pH 4.5), while the animals belonging to the control group received vehicle injection. The next day following STZ administration, the induction of diabetes in all STZ-treated mice was confirmed the glucose level in blood by a glucometer (ACCU-CHEK, Roche diagnostics Inc., Seoul, Korea). All mice with blood glucose levels higher than 200 mg/dL in fasting state were considered acute diabetes. After the confirmation of the induction of diabetes, the mice of the experimental group were further randomized into three groups: STZ alone treated group; high dose of PLAG treated group; a low dose of PLAG treated group. PLAG was injected into mice for 3 days. Control and STZ alone treated groups were administrated orally to mice with the same PBS for 3 days. Following sacrifice, LPL activity was measured in plasma using a quantitative LPL activity assay kit (Cell Biolabs, Inc, San Diego, Calif.). Diluted samples and standards were loaded to the fluorescence microtiter plate, and LPL fluorometric substrate was added. After 30 minutes, the reaction stopped by stopping the solution. After 15 minutes, the sample fluorescence measured by a fluorescence microplate reader. The relative amounts of Apolipoprotein B48 (ApoB48) of portal vein plasma were evaluated by western blot analysis. […] The protein extracts were immunoblotted with the ApoB48 antibody (Abcam, MA, USA). Eight-week-old Balb/c male mice were purchased from Koatech Co. (Pyeongtaek, Republic of Korea) and maintained in for 7 days in order to adapt to the environment. The experimental protocol was approved by the Animal Care and Use Committee of Korea Research Institute of Bioscience and Biotechnology Institution (KRIBB-AEC-17146) and performed in accordance with the National Institutes of Health Guidelines for the care and use of laboratory animals and with the Korean national laws for animal welfare. The mice were randomized initially into 2 experimental groups as follows: Non-treated group as a control; STZ treated group. STZ treated groups received an intraperitoneal injection of 200 mg/kg BW STZ, which was dissolved in citrate buffer (pH 4.5), while the animals belonging to the control group received vehicle injection. The next day following STZ administration, the induction of diabetes in all STZ-treated mice was confirmed the glucose level in blood by a glucometer (ACCU-CHEK, Roche diagnostics Inc., Seoul, Korea). All mice with blood glucose levels higher than 200 mg/dL in fasting state were considered acute diabetes. After the confirmation of the induction of diabetes, the mice of the experimental group were further randomized into three groups: STZ alone treated group; high dose of PLAG treated group; a low dose of PLAG treated group. One day after STZ injection, mice were orally injected with PLAG for 3 days (FIG. 31A). The dosage and preparation of PLAG were determined according to previous reports. Control and STZ alone treated groups were administrated orally with the same PBS for 3 days. The experiments were carried out according to the methods mentioned above. […] Total RNA was isolated from the muscle of individual mice using TRIzol reagent (Favorgen Biotech, Taiwan). […]

The subject of data set [3] is chemo-radiation induced oral mucositis. The data set can be described thus: Chemo-radiation induced oral mucositis (CRIOM), Example 48. It is filed as in vivo, mice. As for the experimental part: Mice (7-9 weeks, Balb/[…]) were administered intraperitoneally 5-FU (100 mg/kg, Sigma Aldrich). After 1 hr, mice head received 20 Gy using x-ray irradiatior (X-RAD 320, 1.8 Gy/min). Custom-made lead shields were used for mice to limit the radiation to the heads. PLAG (Enzychem Lifesciences Co.) was administered orally with 250 mg/kg once daily. The experimental design of the study was represented in schematic design. […] Toluidine blue stains ribonucleotides and detect inflammatory tissues.

Data set [4] relates to intracellular ROS in Raw264.7 cells. The experiment in a line: LPS-induced intracellular ROS production (CM-H2DCFDA). It is filed as cell-based. As to conditions: LPS/PLAG treatment. The procedure:
Raw264.7 cells were divided into two groups: 1) LPS treated group and 2) LPS/PLAG treated group. For LPS treated group, cells were stimulated with LPS (100 ng/ml) for 0, 15, 30, 45, 60, 75, 90, 105, 120 minutes. For LPS/PLAG treatment, cells were pre-incubated with PLAG (100 ng/ml) for 1 hour and then stimulated with LPS (100 ng/ml) for 0, 15, 30, 45, 60, 75, 90, 105, 120 minutes. To detect intracellular ROS, cells were treated with […]CM-H2DCFDA (Invitrogen, Carlsbad, Calif., USA) for 30 minutes before LPS treatment for LPS treated group and before PLAG treatment for LPS/PLAG treated group. For confocal microscopy analysis, cells were washed with PBS and mounted in DAPI-containing fluorescence microscopy mounting medium (Invitrogen). Samples were analyzed with a laser scanning confocal microscope (Carl Zeiss, Oberkochen, Germany).
Raw264.7 cells were divided into two groups: 1) LPS treated group and 2) LPS/PLAG treated group. For the LPS treated group, cells were treated with 100 μg/ml of DMSO (as solvent control) for 1 hour and treated with LPS (100 ng/ml) for 15, 30, 60, and 120 minutes. For LPS/PLAG treated group, cells were treated with PLAG (100 μg/ml) for 1 hour and treated with LPS (100 ng/ml) for 15, 30, 60, and 120 minutes. […] These were analyzed by confocal microscopy. […]

Regarding `CCCCC/C=C\C/C=C\CCCCCCCC(=O)OC(COC(C)=O)COC(=O)CCCCCCCCCCCCCCC` (racemic) [PLAG, 1-palmitoyl-2-linoleoyl-3-acetylglycerol], in data set [1], the “average diameter (DLS)” value came out at 107.6 nm and the “particle shape (TEM)” value is listed as “spherical shape”. Further, the “STZ-induced empty fat vacuoles in liver (H&E)” value in data set [2] (250 mg/kg vs 50 mg/kg) was “decreased STZ-induced empty fat vacuoles more effectively than 50 mg/kg”. In data set [2] (STZ 200 mg/kg, PLAG 3 days), the “plasma LPL activity” value is on record as “recovered”. Also, the “muscle TG content” value in data set [2] (STZ/PLAG treated group) is on record as “recovered”. In data set [2], the “body weight versus STZ treated mice” value is “less body weight loss” and the “hepatic steatosis / liver damage (histology)” value is reported as “attenuated”. Besides, the “ApoB48 level in portal vein blood” value in data set [2] (dose-dependent) was “markedly reduced”. Moreover, the “mucositis and ulcer in tongues” value in data set [3] (PLAG 250 mg/kg once daily, day 9) was “no mucositis and ulcer”. Also, the “mice tongues stained with toluidine blue” value in data set [3] (PLAG treated group n=8, day 9) is listed as “one out of eight”. In data set [4], the ROS production initiated was 15 min and the “return to homeostatic levels of intracellular ROS” value is 60 min.
Take `CCCCC/C=C\C/C=C\CCCCCCCC(=O)OC(CO)COC(=O)CCCCCCCCCCCCCCC` (centres unmarked) [PLH, palmitic linoleic hydroxyl glycerol, reference compound]: in data set [2], the “body weight versus STZ treated mice” value was “no difference” and the “hepatic steatosis / liver damage (histology)” value is “not altered”.
